Test results from article PMC9413440, “An Iterative Approach Guides Discovery of the FabI Inhibitor Fabimycin, a Late-Stage Antibiotic Candidate with In Vivo Efficacy against Drug-Resistant Gram-Negative Infections” (ACS Central Science, 2022).
Read-outs that look alike come from different tables or passages of the source.

Tests used:
[1] = tested on: S. aureus ATCC 29213; assay type: cell-based, Staphylococcus aureus
Experimental: Selection of resistant mutants
Resistant mutants were generated using the large inoculum method. Briefly, S. aureus 29213, E. coli MG1655, and A. baumannii 19606 (~1 x 1010 CFUs) was plated on 100-mm plates (E. coli and A. baumannii) or 150-mm plates (S. aureus) of MH agar containing either 128, 64, or 32 µg/mL fabimycin (for gram-negatives) or 0.125, 0.062, and 0.031 µg/mL fabimycin (for S. aureus). Plates were incubated at 37 °C for 48 h and counted for the presence of colony forming units.
Glycerol stocks of selected colonies were made, and resistant colonies confirmed by growing on agar plates containing the same concentration of fabimycin that they were generated at. […]
Forward 5’-GGG-GCC-AGC-GTT-TCT-TTT-TC-3‘ Parker, 20203
Reverse 5’-AAA-CAT-GGA-GAC-GGT-GCT-GG
Forward 5’-GTG-AGA-TCG-GCA-TGA-CAC-AA-3’ Lin, 20179
Reverse 5’-CTG-AAG-TCC-GCT-ACC-GTT-AT-3’
Compound stability in mammalian plasma […]
Each drug is tested […]
in duplicate. Compounds were diluted from 10 mM DMSO stocks to 1 µM in a 100 mM pH 7.4 phosphate buffer and incubated at 37 °C with 0.5 mg/mL of human, rat, or mouse plasma (BioreclamationIVT, Baltimore, MD). […]
Compound plasma protein binding […]
The standard assay involves equilibrium dialysis, in which compound is allowed to equilibrate between a protein-containing compartment from a protein-free compartment. Each

[2] = Pharmacokinetic assessment in neutropenic A. baumannii-infected mice; assay type: in vivo, mouse; details: for Cmax / AUC(0-t) / clearance / half-life: single dose; for TimeHigh: time above the MIC of the infective strain (2 µg/mL)
Source text: Pharmacokinetic assessment
The protocol to assess fabimycin’s pharmacokinetic properties in A. baumanii-infected mice (strain: AR-0088) was approved by the IACUC at Pharmacology Discovery Services, Taiwan, Ltd. (protocol mumber: PK001-09212018). In this study, neutropenic female BALB/c mice 7-8 weeks in age from BioLASCO Taiwan (AAALAC-certified Charles River Licensee) weighing 18 ± 2 grams were used.10 All animals were specific pathogen free. Mice were rendered neutropenic via cyclophosphamide (CP) administration by two intraperitoneal (IP) injections following a standard method for mouse thigh infection models.11 The first CP dose, 150 mg/kg, was administered at four days before infection (Day –4); and the second, 100 mg/kg, at 24 h before infection (Day –1), prior to infection on Day 0.
To inoculate the mice, A. baumannii cultures were first generated by seeding brain heart infusion (BHI, 20 mL) with an aliquot (0.2 mL) of a single-used glycerol stock of A. baumannii AR-0088 stored at -80 °C and incubating at 35-37 °C with shaking (250 rpm) for 6 hours. An aliquot of this culture (1.0 mL) was used to seed fresh BHI media (99 mL) and this shaken (250 rpm) at 35-37 °C for 16 hours. Bacterial cells were harvested by centrifuging 20 mL of this outgrowth culture (3,500 x g) for 15 minutes and re-suspending in fresh cold phosphate buffered saline (PBS, 10 mL). The optical density at 620 nm was measured and used to guide dilutions. PBS suspensions were stored on ice for no more than 1 hour prior to animal inoculation. The bacterial count in the challenge organism suspension was enumerated by dilution plating on to nutrient gar plates followed by 20-24 hour incubation. The target inoculum is 1.0 * 10^5 CFU/mouse for the strain […]
Fabimycin was IV administered once followed by terminal blood sampling at 8 time points with cardiac puncture (5, 15, 30, 45, 60, 120, 240, and 480 minutes). Terminal blood collection from cardiac puncture was conducted under CO2 euthanasia. Blood, 0.3-0.4 mL, was drawn into tubes coated with K2EDTA, mixed gently and kept on ice and centrifuged at 12,000 × g for 5 minutes at 4°C within 1 hour of collection. The plasma was harvested and stored at -80 °C until further processing. Thigh tissues were aseptically harvested from the left thigh of the infected animals, weighed, and homogenized in sterile PBS (3 mL, pH 7.4) with a Polytron homogenizer. The thigh homogenate was collected and stored at -80 °C until further processing.
For LC-MS/MS sample processing a 20 µL aliquot of each plasma and thigh sample was transferred to 96 well plate. A 300 µL aliquot of 0.01 ng/µL internal standard (IS), oxybutynin, in MeOH/FA=95/5 was added to each tube except for the double blank and carryover controls. A 300 μL aliquot of MeOH/FA=95/5, without oxybutynin, was added to the double blank and carryover assay wells. The equilibrated mixture was vortexed for 1 min and then centrifuged at 4,000 rpm for 5 min at 20 °C to precipitate protein. After centrifugation, 50 µL of the supernatant was transferred to a new well of the 96 well plate and 500 μL H2O/FA=100/0.2 added for LC-MS/MS analysis. Plasma and thigh samples from treatment groups and the calibration curve samples were processed on the same test occasion using the same procedure.
The calibration curve samples were generated by spiking aliquots of drug-free plasma or thigh homogenates with the test article dilution. The quality control (QC) samples, QH (high), QM (medium) and QL (low) were each assayed in duplicate. The PK parameters for the IV doses were obtained from the non-compartmental analysis (NCA) of the plasma and thigh homogenate data using WinNonlin (Phoenix® Build 8.3.1.5014).
LC-MS/MS runs were conducted with a SCIEX Triple Quad™ 5500+ mass sp ectrometer. Method development was conducted to determine appropriate conditions for LC-MS/MS analysis of fabimycin. A titration of a stock solution was performed to correlate peak areas and the corresponding concentration. […]

[3] = female, BALB/c, mouse, plasma, 75 mg/kg, IV
[4] = female, BALB/c, mouse, plasma, 100 mg/kg, IV
[5] = female, BALB/c, mouse, thigh, 75 mg/kg, IV
[6] = female, BALB/c, mouse, thigh, 100 mg/kg, IV

Cc1c(CN(C)C(=O)/C=C/c2cnc3c(c2)CC[C@H](N)C(=O)N3)oc2ccccc12 [fabimycin]
frequency of resistance [1]: 1.8 × 10^–10 to 5.2 × 10^–10 | mutant prevention concentration (MPC) [1]: 0.125 µg/mL | Cmax ([2]; female, BALB/c, mouse, plasma, iv, 75 mg/kg, plasma, 75 mg/kg, read-out: Cmax): 34600 ng/mL | Cmax ([2]; female, BALB/c, mouse, plasma, iv, 100 mg/kg, plasma, 100 mg/kg, read-out: Cmax): 47300 ng/mL | Cmax ([2]; female, BALB/c, mouse, thigh, iv, 75 mg/kg, thigh, 75 mg/kg, read-out: Cmax): 33000 ng/g | Cmax ([2]; female, BALB/c, mouse, thigh, iv, 100 mg/kg, thigh, 100 mg/kg, read-out: Cmax): 60200 ng/g | AUC(0-t) [2, 3]: 45400 ng·h/mL | clearance [2, 3]: 26.9 mL/min/kg | half-life [2, 3]: 1.4 h | AUC(0-t) [2, 4]: 69800 ng·h/mL | clearance [2, 4]: 23.5 mL/min/kg | half-life [2, 4]: 1.4 h | AUC(0-t) [2, 5]: 65200 ng·h/mL | clearance [2, 5]: 18.9 mL/min/kg | half-life [2, 5]: 1.39 h | AUC(0-t) [2, 6]: 112000 ng·h/mL | clearance [2, 6]: 14.7 mL/min/kg | half-life [2, 6]: 1.24 h | TimeHigh ([2]; plasma, 75 mg/kg, IV): 5.70 h | Cmax ([2]; plasma, 100 mg/kg, IV): 47000 ng/mL | TimeHigh ([2]; plasma, 100 mg/kg, IV): 6.67 h | TimeHigh ([2]; thigh, 75 mg/kg, IV): over 6 h | TimeHigh ([2]; thigh, 75 mg/kg, IV, listed as Fabimycin): 6.22 h | TimeHigh ([2]; thigh, 100 mg/kg, IV): 7.19 h
